Measured values from patent US20200237901A1 (priority 2016, published 2020).
Where “and” joins values, the source holds several entries; their conditions need not be identical. Equal entries are not always repeated.

Legend:
[1] = tested on: Enterovirus 71 Hn2 strain (EV71-Hn2); type: cell-based
[2] = tested on: murine hepatitis coronavirus A59 strain (MHV-A59); type: cell-based
[3] = tested on: Ectromelia Virus Moscow strain (ECTV-MOS strain); parameters: species or system Balb/c mice; conditions: mouse, in vivo, ip
[4] = female, Balb/c, mouse, in vivo, ip

## Nc1ccn(C[C@@H](CO)OCP(=O)(O)O)c(=O)n1 [Cidofovir]
[1]
  effect on the titers of enterovirus (EV71): no effects
[2]
  effect on the titers of coronavirus (MHV): no effects
[3]
  Case-Fatality Rate (%): 6.67% and 13.33%
  Death Number: 1 and 2
  Survival Number: 14 and 13
  Survival Rate (%): 86.67% and 93.33%
[4]
  Case-Fatality Rate (%): 0%
  Death Number: 0
  Survival Number: 15
  Survival Rate (%): 100%
